# From ChEMBL document CHEMBL3885861, “Open TG-GATES”
# Species on record: Rattus norvegicus
# Assay: Open TG-GATES - Regimen: Single
# Type: toxicity, organism-based, Sprague-Dawley
# Design: regimen Single, gender Male, age 6 weeks
# Settings: in vivo, po, 5 mg/kg, route gavage, dose level Middle; for Bas / Eos / Fbg / Hb / Ht / Lym / MCHC / MCV / Mono / Neu / Plat / RBC / Ret / WBC: tissue Blood; for KIDNEY_TOTAL: tissue Kidney; for LIVER: tissue Liver; for ALT / AST / BUN / CRE / Ca / Cl / DBIL / GLC / IP / K / LDH / Na / PL / RALB / TBIL / TC / TP / gamma-GTP: tissue Plasma
smiles,measurement,setting,value
C[C@@H]1C[C@H]2[C@@H]3CCC4=CC(=O)C=C[C@]4(C)[C@@]3(F)[C@@H](O)C[C@]2(C)[C@@]1(O)C(=O)CO [DEXAMETHASONE],TERMINAL_BW,3 h,210 g
same,Bas,3 h,0%
same,Eos,3 h,0.6%
same,Fbg,3 h,235.2 mg/dL
same,Hb,3 h,13.2 g/dL
same,Ht,3 h,40.3%
same,Lym,3 h,71.4%
same,MCHC,3 h,32.8%
same,MCV,3 h,65 fL
same,Mono,3 h,2.4%
same,Neu,3 h,25.6%
same,Plat,3 h,121.2 x10_4/uL
same,RBC,3 h,620.6 x10_4/ul
same,Ret,3 h,9.6%
same,WBC,3 h,46.5 x10_2/uL
same,KIDNEY_TOTAL,3 h,0.6 g
same,LIVER,3 h,10.6 g
same,ALT,3 h,41 IU/L
same,AST,3 h,77.8 IU/L
same,BUN,3 h,15 mg/dL
same,CRE,3 h,0.4 mg/dL
same,Ca,3 h,11.4 mg/dL
same,Cl,3 h,101.8 meq/L
same,DBIL,3 h,0.014 mg/dL
same,GLC,3 h,193.4 mg/dL
same,IP,3 h,11.9 mg/dL
same,K,3 h,4.1 meq/L
same,LDH,3 h,103.8 IU/L
same,Na,3 h,141.2 meq/L
same,PL,3 h,157.4 mg/dL
same,RALB,3 h,4.2 g/dL
same,TBIL,3 h,0.046 mg/dL
same,TC,3 h,91.2 mg/dL
same,TP,3 h,6 g/dL
same,gamma-GTP,3 h,0.4 IU/L
same,TERMINAL_BW,6 h,205.5 g
same,Bas,6 h,0%
same,Eos,6 h,0.6%
same,Fbg,6 h,243.6 mg/dL
same,Hb,6 h,12.9 g/dL
same,Ht,6 h,39.2%
same,Lym,6 h,59.4%
same,MCHC,6 h,32.8%
same,MCV,6 h,64.4 fL
same,Mono,6 h,3.6%
same,Neu,6 h,36.6%
same,Plat,6 h,129.5 x10_4/uL
same,RBC,6 h,609.4 x10_4/ul
same,Ret,6 h,6.7%
same,WBC,6 h,27.3 x10_2/uL
same,KIDNEY_TOTAL,6 h,0.6 g
same,LIVER,6 h,11.2 g
same,ALT,6 h,39.8 IU/L
same,AST,6 h,82.6 IU/L
same,BUN,6 h,17.2 mg/dL
same,CRE,6 h,0.4 mg/dL
same,Ca,6 h,11.6 mg/dL
same,Cl,6 h,103.2 meq/L
same,DBIL,6 h,0.01 mg/dL
same,GLC,6 h,223.8 mg/dL
same,IP,6 h,7.7 mg/dL
same,K,6 h,4.1 meq/L
same,LDH,6 h,84.4 IU/L
same,Na,6 h,138.8 meq/L
same,PL,6 h,153.6 mg/dL
same,RALB,6 h,4.5 g/dL
same,TBIL,6 h,0.036 mg/dL
same,TC,6 h,101.4 mg/dL
same,TP,6 h,6.3 g/dL
same,gamma-GTP,6 h,0 IU/L
same,TERMINAL_BW,9 h,199.5 g
same,Bas,9 h,0%
same,Eos,9 h,0.2%
same,Fbg,9 h,246 mg/dL
same,Hb,9 h,13.6 g/dL
same,Ht,9 h,41.5%
same,Lym,9 h,37%
same,MCHC,9 h,32.7%
same,MCV,9 h,64.4 fL
same,Mono,9 h,1.4%
same,Neu,9 h,61.2%
same,Plat,9 h,122.1 x10_4/uL
same,RBC,9 h,645.2 x10_4/ul
same,Ret,9 h,6%
same,WBC,9 h,18.2 x10_2/uL
same,KIDNEY_TOTAL,9 h,0.4 g
same,LIVER,9 h,10.8 g
same,ALT,9 h,39.4 IU/L
same,AST,9 h,76.8 IU/L
same,BUN,9 h,19.4 mg/dL
same,CRE,9 h,0.4 mg/dL
same,Ca,9 h,10.9 mg/dL
same,Cl,9 h,102 meq/L
same,DBIL,9 h,0.008 mg/dL
same,GLC,9 h,226 mg/dL
same,IP,9 h,7.2 mg/dL
same,K,9 h,3.9 meq/L
same,LDH,9 h,104.4 IU/L
same,Na,9 h,138.6 meq/L
same,PL,9 h,179.4 mg/dL
same,RALB,9 h,4.6 g/dL
same,TBIL,9 h,0.032 mg/dL
same,TC,9 h,118 mg/dL
same,TP,9 h,6.7 g/dL
same,gamma-GTP,9 h,0.8 IU/L
same,TERMINAL_BW,24 h,208.2 g
same,Bas,24 h,0%
same,Eos,24 h,1%
same,Fbg,24 h,232.4 mg/dL
same,Hb,24 h,13.4 g/dL
same,Ht,24 h,40.4%
same,Lym,24 h,46.8%
same,MCHC,24 h,33.1%
same,MCV,24 h,63.3 fL
same,Mono,24 h,9.2%
same,Neu,24 h,43.2%
same,Plat,24 h,136.7 x10_4/uL
same,RBC,24 h,638.4 x10_4/ul
same,Ret,24 h,5.4%
same,WBC,24 h,47.5 x10_2/uL
same,KIDNEY_TOTAL,24 h,0.4 g
same,LIVER,24 h,13.2 g
same,ALT,24 h,37.2 IU/L
same,AST,24 h,83.4 IU/L
same,BUN,24 h,17.6 mg/dL
same,CRE,24 h,0.4 mg/dL
same,Ca,24 h,11.4 mg/dL
same,Cl,24 h,99.4 meq/L
same,DBIL,24 h,0.022 mg/dL
same,GLC,24 h,205 mg/dL
same,IP,24 h,6.8 mg/dL
same,K,24 h,5.1 meq/L
same,LDH,24 h,96 IU/L
same,Na,24 h,137.8 meq/L
same,PL,24 h,249.2 mg/dL
same,RALB,24 h,4.8 g/dL
same,TBIL,24 h,0.044 mg/dL
same,TC,24 h,119.2 mg/dL
same,TP,24 h,6.8 g/dL
